molecular target: T1, Ba/F3 cell EGFR Exon20 ins NPH (Homo sapiens, UniProt P00533, INS773NPH); test: Ba/F3 cell proliferation suppression, EGFR Exon20 ins NPH; type: cell-based; conditions: GI50 class; Ba/F3 cell line with NPH inserted at Exon20 of EGFR; 72 hours
T1 construct: expressed in transfected cells; host or cells: Ba/F3
Summary of the method: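 Cells (3000–5000/well) plated 24 h before compound, 12-point 3-fold dilutions at 0.3 nM to 50 um final; Ba/F3 lines grown with 5 ng/ml IL-3. Viability by CellTiter-Glo luminescence after 72 h, growth ratio vs control, GI50 from curves; triplicate.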

Row | SMILES | Ba/F3 (NPH) Activity
1 | C=CC(=O)Nc1cc(Nc2cc(N3OCC[C@@H]3Cc3cccnc3)ncn2)c(OC)cc1N1CCC(N2CCN(C3CC3)CC2)CC1 [compound 985, N-(2-(4-(4-cyclopropylpiperazine-1-yl)piperidine-1-yl)-4-methoxy-5-((6-((S)-3-(pyridine-3-ylmethyl)isoxazolidine-2-yl)pyrimidine-4-yl)amino)phenyl) acrylamide] | C (500 nM ≤ GI50 < 5000 nM)
2 | C=CC(=O)Nc1cc(Nc2cc(N3OCC[C@@H]3c3cccc(C#N)c3)ncn2)c(OC)cc1N1CCC(N2CC3CCC(C2)N3C2CC2)CC1 [Example 133, N-(5-((6-((R)-3-(3-cyanophenyl)isoxazolidine-2-yl)pyrimidine-4-yl)amino)-2-(4-(8-cyclopropyl-3,8-diazabicyclo[3.2.1]octan-3-yl)piperidine-1-yl)-4-methoxyphenyl) acrylamide] | B (50 nM ≤ GI50 < 500 nM)
3 | C=CC(=O)Nc1cc(Nc2cc(N3OCC[C@@H]3c3cccc4ccccc34)ncn2)c(OC)cc1N1CCC(N2C[C@@H]3C[C@H]2CO3)CC1 [compound 489, N-(2-(4-((1S,4S)-2-oxa-5-azabicyclo[2.2.1]heptane-5-yl)piperidine-1-yl)-4-methoxy-5-((6-((R)-3-(naphthalene-1-yl)isoxazolidine-2-yl)pyrimidine-4-yl)amino)phenyl)acrylamide] | A (GI50 < 50 nM)
4 | C=CC(=O)Nc1cc(Nc2cc(N3OCC[C@@H]3c3ccccc3)ncn2)c(OC)cc1N1CCC(N(C)CCN(C)C)CC1 [compound 735, N-(2-(4-((2-(dimethylamino)ethyl) (methyl)amino)piperidine-1-yl)-4-methoxy-5-((6-((R)-3-phenylisoxazolidine-2-yl)pyrimidine-4-yl)amino)phenyl) acrylamide] | A (GI50 < 50 nM)
5 | C=CC(=O)Nc1cc(Nc2cc(N3OCC[C@H]3c3cc(F)cc(F)c3)ncn2)c(OC)cc1N1CCC(N2CCN(C3CC3)CC2)CC1 [Example 118] | C (500 nM ≤ GI50 < 5000 nM)
6 | C=CC(=O)Nc1cc(Nc2cc(N3OCC[C@@H]3c3cc(F)ccc3F)ncn2)c(OC)cc1N1CCC(N2C[C@H](C)N(C3CC3)C[C@H]2C)CC1 [Example 173, N-(2-(4-((2R,5S)-4-cyclopropyl-2,5-dimethylpiperazine-1-yl)piperidine-1-yl)-5-((6-((R)-3-(2,5-difluorophenyl)isoxazolidine-2-yl)pyrimidine-4-yl)amino)-4-methoxyphenyl) acrylamide] | A (GI50 < 50 nM)
7 | C=CC(=O)Nc1cc(Nc2cc(N3OCC[C@@H]3c3ccccc3)ncn2)c(OC)cc1N1CCC(N2CCC(N(C)C)CC2)CC1 [compound 740, N-(2-(4-(dimethylamino)-[1,4'-bipiperidine]-1'-yl)-4-methoxy-5-((6-((R)-3-phenylisoxazolidine-2-yl)pyrimidine-4-yl)amino)phenyl)acrylamide] | A (GI50 < 50 nM)
8 | C=CC(=O)Nc1cc(Nc2cc(N3OCC[C@@H]3c3cccc(Cl)c3Cl)ncn2)c(OC)cc1N1CC[C@@H](N(C)C)C1 [compound 526, N-(5-((6-((R)-3-(2,3-dichlorophenyl)isoxazolidine-2-yl)pyrimidine-4-yl)amino)-2-((R)-3-(dimethylamino)pyrolidine-1-yl)-4-methoxyphenyl) acrylamide] | A (GI50 < 50 nM)
9 | C#Cc1cccc([C@H]2CCON2c2cc(Nc3cc(NC(=O)C=C)c(N(C)CCN(C)C)cc3OC)ncn2)c1 [compound 616, N-(2-((2-(dimethylamino)ethyl) (methyl)amino)-5-((6-((R)-3-(3-ethynylphenyl)isoxazolidine-2-yl)pyrimidine-4-yl)amino)-4-methoxyphenyl) acrylamide] | A (GI50 < 50 nM)
10 | C=CC(=O)Nc1cc(Nc2cc(N3OCC[C@@H]3Cc3cccc(Cl)c3Cl)ncn2)c(OC)cc1N1CCN(CC)CC1 [compound 1008, N-(5-((6-((S)-3-(2,3-dichlorobenzyl)isoxazolidine-2-yl)pyrimidine-4-yl)amino)-2-(4-ethylpiperazine-1-yl)-4-methoxyphenyl) acrylamide] | A (GI50 < 50 nM)

The next lines start with the values.

Row | Ba/F3 (NPH) Activity | SMILES
11 | A (GI50 < 50 nM) | C=CC(=O)Nc1cc(Nc2cc(N3OCC[C@@H]3c3cccc(Cl)c3F)ncn2)c(OC)cc1N1CCC(N2C[C@H](C)N(C3CC3)C[C@@H]2C)CC1 [Example 128, N-(5-((6-((R)-3-(3-chloro-2-fluorophenyl)isoxazolidine-2-yl)pyrimidine-4-yl)amino)-2-(4-((2S,5S)-4-cyclopropyl-2,5-dimethylpiperazine-1-yl)piperidine-1-yl)-4-methoxyphenyl) acrylamide]
12 | A (GI50 < 50 nM) | C=CC(=O)Nc1cc(Nc2cc(N3OCC[C@@H]3c3ccc(Cl)c(Cl)c3)ncn2)c(OC)cc1N1CCN(C(C)C)CC1 [compound 680, N-(5-((6-((R)-3-(3,4-dichlorophenyl)isoxazolidine-2-yl)pyrimidine-4-yl)amino)-2-(4-isopropylpiperazine-1-yl)-4-methoxyphenyl) acrylamide]
13 | A (GI50 < 50 nM) | C=CC(=O)Nc1cc(Nc2cc(N3OCC[C@@H]3c3cccc(C)c3F)ncn2)c(OC)cc1N1CCN(C2COC2)CC1 [compound 908, N-(5-((6-((R)-3-(2-fluoro-3-methylphenyl)isoxazolidine-2-yl)pyrimidine-4-yl)amino)-4-methoxy-2-(4-(oxetane-3-yl)piperazine-1-yl)phenyl) acrylamide]
14 | A (GI50 < 50 nM) | C=CC(=O)Nc1cc(Nc2cc(N3OCC[C@@H]3c3cccc(Cl)c3C)ncn2)c(OC)cc1N1CCN(CC)CC1 [compound 585, N-(5-((6-((R)-3-(3-chloro-2-methylphenyl)isoxazolidine-2-yl)pyrimidine-4-yl)amino)-2-(4-ethylpiperazine-1-yl)-4-methoxyphenyl) acrylamide]
15 | A (GI50 < 50 nM) | C=CC(=O)Nc1cc(Nc2cc(N3OCC[C@@H]3c3cccc(Cl)c3F)ncn2)c(OC)cc1N1CCC(N2CCN(C)CC2)CC1 [compound 747, N-(5-((6-((R)-3-(3-chloro-2-fluorophenyl)isoxazolidine-2-yl)pyrimidine-4-yl)amino)-4-methoxy-2-(4-(4-methylpiperazine-1-yl)piperidine-1-yl)phenyl) acrylamide]
16 | A (GI50 < 50 nM) | C=CC(=O)Nc1cc(Nc2cc(N3OCC[C@@H]3c3cccc(Cl)c3)ncn2)c(OC)cc1N1CCC(N2CCN(C(C)=O)CC2)CC1 [compound 471, N-(2-(4-(4-acetylpiperazine-1-yl)piperidine-1-yl)-5-((6-((R)-3-(3-chlorophenyl)isoxazolidine-2-yl)pyrimidine-4-yl)amino)-4-methoxyphenyl) acrylamide]
17 | B (50 nM ≤ GI50 < 500 nM) | C=CC(=O)Nc1cc(Nc2cc(N3OCC[C@@H]3c3ccc(C)nc3)ncn2)c(OC)cc1N1CCC(N2CCN(CC)CC2)CC1 [Example 41, N-(2-(4-(4-ethylpiperazine-1-yl)piperidine-1-yl)-4-methoxy-5-((6((R)-3-(6-methylpyridine-3-yl)isoxazolidine-2-yl)pyrimidine-4-yl)amino)phenyl) acrylamide]
18 | A (GI50 < 50 nM) | C=CC(=O)Nc1cc(Nc2cc(N3OCC[C@@H]3c3cccc(F)c3F)ncn2)c(OC)cc1N1CCC(N2CCC(F)(F)CC2)CC1 [compound 341, N-(2-(4,4-difluoro-[1,4'-bipiperidine]-1'-yl)-5-((6-((R)-3-(2,3-difluorophenyl)isoxazolidine-2-yl)pyrimidine-4-yl)amino)-4-methoxyphenyl) acrylamide]

From patent publication US12157730B2, “Heteroaryl derivative, method for producing same, and pharmaceutical composition comprising same as effective component” (VORONOI INC., priority 2019, dated 2024)
